Results on 5 compounds are retold here after patent US6680313B2, “Carbapenum derivatives” (Meiji Seika Kaisha, Ltd., priority 2000, dated 2004).

In one series the test system is P. vulgaris GN 7919. Description: Antimicrobial activities (MIC, agar dilution). It is filed as cell-based. Conditions: Proteus vulgaris, GN7919, Sensitivity Disk agar-N+5% Horse blood, 10^6 CFU/ml, read-out: minimum inhibiting concentrations (MIC). As for the experimental part:
(§1) The minimum inhibiting concentrations (MIC, μg/ml) of representative compounds, among the novel carbapenem derivatives of the present invention, to various pathogenic bacteria were measured in accordance with the method described in CHEMOTHERAPY, vol. 16, No. 1, 99, 1968. The culture medium for the measurement is Sensitivity Disk agar-N+5% Horse blood, and the amount of inoculants used is 10^6 CFU/ml.
In general terms: In agar dilution, organisms are placed on agar that contains the substance at set levels.

The test system of another series is E. faecalis W-73. Briefly: Antimicrobial activities (MIC, agar dilution). The class given is cell-based. To be noted: Enterococcus faecalis, W73, Sensitivity Disk agar-N+5% Horse blood, 10^6 CFU/ml, read-out: minimum inhibiting concentrations (MIC). As for the experimental part:
as §1

Another series deals with S. pneumoniae PRC 9. Briefly: Antimicrobial activities (MIC, agar dilution). To be noted: Streptococcus pneumoniae, PRC9; S. pneumoniae PRC 9, Penicillin-hyperresistant strain; Sensitivity Disk agar-N+5% Horse blood; 10^6 CFU/ml; read-out: minimum inhibiting concentrations (MIC). It is filed as cell-based. Here is the method:
as §1

The test system of the next series is E. coli NIHJ JC-2. Briefly: Antimicrobial activities (MIC, agar dilution). The class given is cell-based. To be noted: Escherichia coli, NIHJJC2, Sensitivity Disk agar-N+5% Horse blood, 10^6 CFU/ml, read-out: minimum inhibiting concentrations (MIC). As for the experimental part: as §1
The test system of another series is K. pneumoniae PC 1602. Briefly: Antimicrobial activities (MIC, agar dilution). The class given is cell-based. To be noted: Klebsiella pneumoniae, PC1602, Sensitivity Disk agar-N+5% Horse blood, 10^6 CFU/ml, read-out: minimum inhibiting concentrations (MIC). As for the experimental part:
as §1

The next series relates to E. hirae ATCC 8043. Description: Antimicrobial activities (MIC, agar dilution). The class given is cell-based. Conditions: Enterococcus hirae, ATCC8043, Sensitivity Disk agar-N+5% Horse blood, 10^6 CFU/ml, read-out: minimum inhibiting concentrations (MIC). Here is the method: as §1
Another series has as its system H. influenzae PRC 44. Briefly: Antimicrobial activities (MIC, agar dilution). The class given is cell-based. Conditions: Haemophilus influenzae, PRC44, Sensitivity Disk agar-N+5% Horse blood, 10^6 CFU/ml, read-out: minimum inhibiting concentrations (MIC). Here is the method: as §1
For another series, the system named is C. freundii GN 346. Briefly: Antimicrobial activities (MIC, agar dilution). The class given is cell-based. Conditions: Citrobacter freundii, GN346, Sensitivity Disk agar-N+5% Horse blood, 10^6 CFU/ml, read-out: minimum inhibiting concentrations (MIC). Here is the method: as §1
The next series deals with H. influenzae PRC 2. Briefly: Antimicrobial activities (MIC, agar dilution). Conditions: Haemophilus influenzae, PRC2, Sensitivity Disk agar-N+5% Horse blood, 10^6 CFU/ml, read-out: minimum inhibiting concentrations (MIC). It is filed as cell-based. As for the experimental part:
as §1

Another series has as its system S. aureus 209P JC-1. Briefly: Antimicrobial activities (MIC, agar dilution). The class given is cell-based. To be noted: Staphylococcus aureus, Sensitivity Disk agar-N+5% Horse blood, 10^6 CFU/ml, read-out: minimum inhibiting concentrations (MIC). As for the experimental part:
as §1

For another series, the system named is B. catarrhalis W-0500. Description: Antimicrobial activities (MIC, agar dilution). It is filed as cell-based. Conditions: Moraxella catarrhalis, W0500, Sensitivity Disk agar-N+5% Horse blood, 10^6 CFU/ml, read-out: minimum inhibiting concentrations (MIC). Here is the method:
as §1

Series [1] concerns S. epidermidis ATCC 14990. Description: Antimicrobial activities (MIC, agar dilution). It is filed as cell-based. To be noted: Staphylococcus epidermidis, ATCC14990, Sensitivity Disk agar-N+5% Horse blood, 10^6 CFU/ml, read-out: minimum inhibiting concentrations (MIC). As for the experimental part:
as §1

A further series relates to S. aureus M 126. Description: Antimicrobial activities (MIC, agar dilution). It is filed as cell-based. Conditions: Staphylococcus aureus, M126; S. aureus M 126, Methicillin-hyperresistant strain; Sensitivity Disk agar-N+5% Horse blood; 10^6 CFU/ml; read-out: minimum inhibiting concentrations (MIC). As for the experimental part: as §1
A further series has as its system mice (ICR, male). Briefly: Acute toxicity test. The class given is in vivo. Conditions: intravenous, 2000 mg/kg, three mice. Here is the method:
The compound of Example 5 according to the present invention was intraveneously administered at a dose of 2000 mg/kg to mice (ICR, male) (one group consisting of three mice).

Values after ≈ are worked out from the molar mass of the structure shown. Where only a bound is given, the exact number is not on record here.

For the compound `C[C@@H](O)[C@H]1C(=O)N2C(C(=O)O)=C(SCCN=CN)C[C@H]12` [Compound A, Imipenem, reference compound], the MIC was 0.1 µg/mL (≈ 0.334 µM) in the series on P. vulgaris GN 7919; 0.78 µg/mL (≈ 2.61 µM) in the series with E. faecalis W-73; 0.2 µg/mL (≈ 0.668 µM) with S. pneumoniae PRC 9; 0.1 µg/mL (≈ 0.334 µM) with E. coli NIHJ JC-2; 0.2 µg/mL (≈ 0.668 µM) in the series with K. pneumoniae PC 1602; 0.78 µg/mL (≈ 2.61 µM) with E. hirae ATCC 8043. Also, the MIC was 12.5 µg/mL (≈ 41.8 µM) in the series with H. influenzae PRC 44; 0.2 µg/mL (≈ 0.668 µM) in the series on C. freundii GN 346; 0.78 µg/mL (≈ 2.61 µM) in the series on H. influenzae PRC 2; under 0.025 µg/mL in the series on S. aureus 209P JC-1; 0.05 µg/mL (≈ 0.167 µM) in the series on B. catarrhalis W-0500; under 0.025 µg/mL in series [1]. The MIC in the series with S. aureus M 126 turned out to be 25 µg/mL (≈ 83.5 µM).
For the compound `C[C@@H](O)[C@H]1C(=O)N2C(C(=O)[O-])=C(c3cn4cncc4s3)[C@H](C)[C@H]12.[Na+]` [Compound B, Sodium (1S,5R,6S)-6-((1R)-1-hydroxyethyl)-2-(imidazo[5,1-b]thiazol-2-yl)-1-methyl-1-carbapen-2-em-3-carboxylate, reference compound], the MIC was found to be 0.1 µg/mL in the series with P. vulgaris GN 7919; 0.39 µg/mL with E. faecalis W-73; 0.2 µg/mL with S. pneumoniae PRC 9; 0.2 µg/mL in the series on E. coli NIHJ JC-2; 0.1 µg/mL in the series with K. pneumoniae PC 1602; 0.39 µg/mL in the series with E. hirae ATCC 8043. In addition, the MIC in the series with H. influenzae PRC 44 is 0.2 µg/mL; in the series with C. freundii GN 346, 1.56 µg/mL; in the series on H. influenzae PRC 2, under 0.025 µg/mL; in the series on S. aureus 209P JC-1, under 0.025 µg/mL; with B. catarrhalis W-0500, 0.1 µg/mL; in series [1], under 0.025 µg/mL. Besides, the MIC with S. aureus M 126 was determined as 6.25 µg/mL.
On to `C[C@@H](O)[C@H]1C(=O)N2C(C(=O)[O-])=C(c3cn4cnc(SCCN)c4s3)[C@H](C)[C@H]12.[Na+]` [Example 5, Sodium (1S,5R,6S)-2-[7-(2-aminoethyl)thioimidazo[5,1-b]thiazol-2-yl]-6-((1R)-1-hydroxyethyl)-1-methyl-1-carbapen-2-em-3-carboxylate], for which the MIC was determined as 0.2 µg/mL in the series on P. vulgaris GN 7919; 0.2 µg/mL with E. faecalis W-73; 0.05 µg/mL in the series on S. pneumoniae PRC 9; 0.1 µg/mL in the series with E. coli NIHJ JC-2; 0.1 µg/mL in the series with K. pneumoniae PC 1602; 0.39 µg/mL in the series with E. hirae ATCC 8043. Besides, the MIC with H. influenzae PRC 44 is 0.2 µg/mL; in the series on C. freundii GN 346, 1.56 µg/mL; with H. influenzae PRC 2, 0.05 µg/mL; with S. aureus 209P JC-1 it was under 0.025 µg/mL; in the series on B. catarrhalis W-0500, 0.05 µg/mL; in series [1], under 0.025 µg/mL. The MIC with S. aureus M 126 turned out to be 1.56 µg/mL. Besides, the “acute toxicity: survival” value with mice (ICR, male) is reported as “all the mice survived”.
Take `C[C@@H](O)[C@H]1C(=O)N2C(C(=O)[O-])=C(c3cn4cnc(SCCF)c4s3)[C@H](C)[C@H]12.[Na+]` [Example 14, Sodium (1S,5R,6S)-2-[7-(2-fluoroethyl)thioimidazo[5,1-b]thiazol-2-yl]-6-((1R)-1-hydroxyethyl)-1-methyl-1-carbapen-2-em-3-carboxylate]: the MIC was 0.78 µg/mL in the series on P. vulgaris GN 7919; 0.2 µg/mL in the series on E. faecalis W-73; 0.05 µg/mL with S. pneumoniae PRC 9; 1.56 µg/mL with E. coli NIHJ JC-2; 1.56 µg/mL in the series with K. pneumoniae PC 1602; 0.2 µg/mL with E. hirae ATCC 8043. For the same compound, the MIC in the series with H. influenzae PRC 44 was 0.025 µg/mL; in the series on H. influenzae PRC 2, under 0.025 µg/mL; in the series on S. aureus 209P JC-1 it was under 0.025 µg/mL; in the series on B. catarrhalis W-0500, 0.1 µg/mL; in [1], under 0.025 µg/mL; with S. aureus M 126 it was 0.78 µg/mL.
With `C[C@@H](O)[C@H]1C(=O)N2C(C(=O)[O-])=C(c3cn4cnc(SCCNC(=N)N)c4s3)[C@H](C)[C@H]12.[Na+]` [Example 20, Sodium (1S,5R,6S)-2-[7-(2-guanidinoethyl)thioimidazo[5,1-b]thiazol-2-yl]-6-((1R)-1-hydroxyethyl)-1-methyl-1-carbapen-2-em-3-carboxylate], the MIC turned out to be 0.39 µg/mL in the series on P. vulgaris GN 7919; 0.2 µg/mL in the series on E. faecalis W-73; 0.05 µg/mL in the series with S. pneumoniae PRC 9; 0.2 µg/mL with E. coli NIHJ JC-2; 0.39 µg/mL in the series with K. pneumoniae PC 1602; 0.2 µg/mL with E. hirae ATCC 8043. In addition, the MIC in the series with H. influenzae PRC 44 is 0.1 µg/mL; with C. freundii GN 346, 1.56 µg/mL; in the series on H. influenzae PRC 2, 0.05 µg/mL; in the series on S. aureus 209P JC-1, under 0.025 µg/mL; with B. catarrhalis W-0500 it was 0.05 µg/mL; in series [1], under 0.025 µg/mL. The MIC in the series on S. aureus M 126 amounted to 0.78 µg/mL.
